This is an account of results in patent US5750540A, “1,4-di-substituted piperidine derivatives” (Banyu Pharmaceutical Co., Ltd., priority 1995, dated 1998).

One test has as its target T1, muscarinic M1 receptors (Rattus norvegicus, UniProt P08482).
T1 construct: a mixture of a membrane specimen from the cerebral cortex; from tissue; host or cells: rat cerebral cortex membranes (SD rat)
T1 sequence (P08482 1-460): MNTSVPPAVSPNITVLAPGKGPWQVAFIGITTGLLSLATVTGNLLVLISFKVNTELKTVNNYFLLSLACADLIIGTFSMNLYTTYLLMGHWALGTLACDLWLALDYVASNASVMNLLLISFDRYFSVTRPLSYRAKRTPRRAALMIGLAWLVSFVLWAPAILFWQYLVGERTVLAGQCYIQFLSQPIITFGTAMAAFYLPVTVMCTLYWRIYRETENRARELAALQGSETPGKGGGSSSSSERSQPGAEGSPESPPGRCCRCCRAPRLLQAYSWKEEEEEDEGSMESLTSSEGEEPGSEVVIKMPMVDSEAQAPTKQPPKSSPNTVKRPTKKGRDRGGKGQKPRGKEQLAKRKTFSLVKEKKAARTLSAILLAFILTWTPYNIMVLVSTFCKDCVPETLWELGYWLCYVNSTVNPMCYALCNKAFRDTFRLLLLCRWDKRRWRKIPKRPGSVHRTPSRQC
The test is described as follows: Inhibition of binding to muscarinic M1 receptors ([3H]-telenzepine, cerebral cortex membrane). On the procedure: (§1) In these tests, their inhibitory and antagonistic effects were expressed in terms of the dissociation constant (Ki) of each test compound which was calculated from its concentration (IC50 ) causing a 50% inhibition of the binding of a labeled ligand to muscarinic receptors. As the labeled ligand, [^3 H]-telenzepine was used for the muscarinic M1 receptors and [^3 H]-N-methylscopolamine for the muscarinic M2 and M3 receptors.
(§2) A male SD strain rat (purchased from Nippon Charles River Co., Ltd.), weighing about 250-350 g, was sacrificed, and the cerebral cortex, heart and lacrimal glands were excised. Using a Polytron (setting 5), each organ was homogenized in 5 volumes of an ice-cold buffer solution (pH 7.4) containing 50 mM tris-HCl, 5 mM magnesium chloride, 1 mM trisodium ethylenediaminetetraacetate and 20% sucrose. The resulting homogenate was centrifuged at 3,000×g at 4° C. for 15 minutes, and the supernatant was filtered through gauze and ultracentrifuged at 100,000×g at 4° C. for 45 minutes. The resulting precipitate was suspended in an ice-cold buffer solution (pH 7.4) containing 50 mM tris-HCl and 5 mM magnesium chloride (hereinafter referred briefly to as "tris buffer") and ultracentrifuged at 100,000×g at 4° C. for 45 minutes. The resulting precipitate was suspended in tris buffer so as to give a concentration of 50 mg/ml and stored at -80° C. till use. The membrane specimens so prepared were thawed prior to use and submitted to tests for the inhibition of binding to muscarinic receptors.
2) Tests for the inhibition of binding to the muscarinic M1 receptors
These tests were performed according to a modification of the method of Hargreaves et al. [Br. J. Pharmacol., Vol. 107, pp. 494-501 (1992)]. Specifically, a mixture of a membrane specimen from the cerebral cortex, 1 nM [^3 H]-telenzepine (85 Ci/mmol; manufactured by New England Nuclear) and a test compound in 0.5 ml of tris buffer was incubated at room temperature (about 20°-25° C.) for 120 minutes. After the addition of 0.5 ml of ice-cold tris buffer, the mixture was filtered by suction through a glass filter (Packard Unifilter Plate GF/C). Then, the filter was washed four times with 1 ml portions of ice-cold tris buffer and dried at 50° C. for an hour. After the addition of a scintillator (Packard Microscinti 0), the radioactivity of [^3 H]-telenzepine adsorbed to the filter was measured with a microplate scintillation counter (Packard Topcount). The nonspecific binding of [^3 H]-telenzepine to receptors was determined by the addition of […] pirenzepine. According to the method of Cheng and Prusoff [Biochem. Pharmacol., Vol. 22, pp. 3099-3108 (1973)], the affinity of the test compound (i.e., a compound in accordance with the present invention) for the muscarinic M1 receptors was determined in terms of its dissociation constant (Ki) calculated from the concentration (IC50) of the test compound which was required to cause a 50% inhibition of the binding of [^3 H]-telenzepine used as the labeled ligand.

The next test addresses T2, muscarinic M2 receptors (Rattus norvegicus, UniProt P10980).
T2 construct: a membrane specimen from the heart was used as the membrane specimen; from tissue; host or cells: rat heart membranes (SD rat)
T2 sequence (P10980 1-466): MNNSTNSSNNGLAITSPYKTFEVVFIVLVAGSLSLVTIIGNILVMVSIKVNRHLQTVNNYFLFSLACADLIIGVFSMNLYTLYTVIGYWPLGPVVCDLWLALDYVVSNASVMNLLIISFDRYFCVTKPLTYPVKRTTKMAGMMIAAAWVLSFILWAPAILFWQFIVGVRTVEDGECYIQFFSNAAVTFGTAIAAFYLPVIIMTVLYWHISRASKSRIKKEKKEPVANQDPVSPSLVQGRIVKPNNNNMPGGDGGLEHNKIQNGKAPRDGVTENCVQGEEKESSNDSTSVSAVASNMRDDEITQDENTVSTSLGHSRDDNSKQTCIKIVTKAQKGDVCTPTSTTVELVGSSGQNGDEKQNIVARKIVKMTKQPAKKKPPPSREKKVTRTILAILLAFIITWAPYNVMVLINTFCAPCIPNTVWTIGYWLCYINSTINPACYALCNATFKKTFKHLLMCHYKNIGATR
The test is described as follows: Inhibition of binding to muscarinic M2 receptors ([3H]-N-methylscopolamine, heart membrane). The conditions noted are these: 0.2 nM [3H]-N-methylscopolamine. How it is done: as §1, with “The compounds of formula [I] in accordance with the present invention have a potent and selective inhibitory effect on binding to muscarinic receptors, as well as a potent and selective antagonistic effect on muscarinic receptors both in vitro and in vivo. […] In” for “In”
as §2
3) Tests for the inhibition of binding to the muscarinic M2 receptors
(§3) The nonspecific binding of [^3 H]-N-methylscopolamine to receptors was determined by the addition of 1 mM N-methylscopolamine.

Another test addresses muscarinic M3 receptor (Rattus norvegicus, UniProt P08483). The test is described as follows: Inhibition of binding to muscarinic M3 receptors ([3H]-N-methylscopolamine, lacrimal gland membrane). More on the design: a membrane specimen from the lacrimal glands was used as the membrane specimen; from tissue; host or cells: rat lacrimal gland membranes (SD rat). The conditions noted are these: for M1/M3 / M2/M3: ratio of binding Ki; for M1/M3: M1 over M3; for M2/M3: M2 over M3. How it is done: as §1, §2
4) Tests for the inhibition of binding to the muscarinic M2 receptors
as §3

Sequence of muscarinic M3 receptor (P08483 whole entry): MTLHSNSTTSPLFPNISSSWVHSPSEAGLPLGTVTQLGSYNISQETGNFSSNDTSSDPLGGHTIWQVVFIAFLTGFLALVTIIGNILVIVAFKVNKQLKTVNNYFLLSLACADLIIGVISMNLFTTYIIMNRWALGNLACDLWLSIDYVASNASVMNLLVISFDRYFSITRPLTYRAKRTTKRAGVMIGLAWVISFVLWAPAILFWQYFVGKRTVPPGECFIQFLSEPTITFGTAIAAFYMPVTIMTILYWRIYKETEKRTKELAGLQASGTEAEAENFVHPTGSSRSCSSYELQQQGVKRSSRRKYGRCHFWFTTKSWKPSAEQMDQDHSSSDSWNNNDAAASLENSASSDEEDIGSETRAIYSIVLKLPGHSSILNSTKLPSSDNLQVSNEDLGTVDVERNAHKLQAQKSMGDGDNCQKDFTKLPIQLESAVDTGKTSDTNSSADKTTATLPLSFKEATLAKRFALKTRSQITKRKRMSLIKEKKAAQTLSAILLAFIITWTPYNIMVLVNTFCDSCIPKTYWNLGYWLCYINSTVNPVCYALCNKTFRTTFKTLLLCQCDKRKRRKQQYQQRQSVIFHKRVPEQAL

With `CC[C@H](C)CCCN1CCC(NC(=O)[C@](O)(c2ccccc2)C2CCC2)CC1.Cl` [Example 22, (2R)-N-{1-[(4S)-4-Methylhexyl]piperidin-4-yl}-2-cyclobutyl-2-hydroxy-2-phenylacetamide hydrochloride], the Ki (in general, the dissociation constant of the complex between target and ligand, obtained from inhibition or displacement) was determined as 120 nM on muscarinic M1 receptors, 1400 nM at muscarinic M2 receptors and 9.2 nM at muscarinic M3 receptor. In addition, the M1/M3 on muscarinic M3 receptor came to 13.0. Moreover, the M2/M3 at muscarinic M3 receptor is 152.
In the same order, the values of `CC[C@H](C)CCCN1CCC(NC(=O)[C@](O)(c2ccccc2)C2CCCC2)CC1.Cl` [Example 29, (2R)-N-{1-[(4S)-4-Methylhexyl]piperidin-4-yl}-2-cyclopentyl-2-hydroxy-2-phenylacetamide hydrochloride] are 40 nM, 1100 nM, 4.1 nM, 10 and 270.
In turn, `CC(C)=CCCN1CCC(NC(=O)C(O)(c2ccccc2)C2CCCC2)CC1` (stereo not shown) [Example 16, N-[1-(4-Methyl-3-pentenyl)piperidin-4-yl]-2-cyclopentyl-2-hydroxy-2-phenylacetamide] gave a Ki on muscarinic M1 receptors of 13 nM. In addition, the inhibition constant Ki at muscarinic M2 receptors stood at 302 nM. In addition, on muscarinic M3 receptor, the Ki stood at 3.1 nM, the M1/M3 is reported as 4.2 and the M2/M3 worked out at 97.
Regarding `CC(C)=CCCN1CCC(NC(=O)[C@](O)(c2ccccc2)C2CCCC2)CC1.O=C(O)/C=C/C(=O)O` [Example 28, (2R)-N-[1-(4-Methyl-3-pentenyl)piperidin-4-yl]-2-cyclopentyl-2-hydroxy-2-phenylacetamide fumarate], the Ki on muscarinic M1 receptors worked out at 6 nM. For the same molecule, the inhibition constant (Ki) on muscarinic M2 receptors amounted to 190 nM. Further, on muscarinic M3 receptor, the affinity, expressed as Ki, was 2 nM; the M1/M3 worked out at 3.0; the M2/M3 turned out to be 96.
For the molecule `O=C(NC1CCN(CC2CCCCC2)CC1)C(O)(c1ccccc1)C1CCCC1` (stereo not shown) [Example 32, N-[1-(Cyclohexylmethyl)piperidin-4-yl]-2-cyclopentyl-2-hydroxy-2-phenylacetamide], the results for the Ki on muscarinic M2 receptors and at muscarinic M3 receptor were 2300 nM and 11 nM, respectively.
